Data from the NIST ThermoML archive (doi:10.1007/s10765-012-1233-x).

Conditions: Liquid; for viscosity: Falling or rolling sphere viscometry; for mass density: Vibrating tube method; for thermal conductivity: Hot wire method

CCCCCCn1cc[n+](C)c1.F[B-](F)(F)F [1-hexyl-3-methylimidazolium tetrafluoroborate]
Conditions	mass density [kg/m3]	thermal conductivity [W/m/K]	viscosity [mPa·s]
293.15 K, 100 kPa	1148.6	–	286
293.15 K, 5000 kPa	1151.2	–	302
293.15 K, 10000 kPa	1153.5	–	318
293.15 K, 15000 kPa	1155.8	–	345
293.15 K, 20000 kPa	1158.2	–	372
294.2 K, 100 kPa	–	0.166	–
294.2 K, 10000 kPa	–	0.168	–
294.2 K, 20000 kPa	–	0.17	–
313.15 K, 100 kPa	1134.1	–	92.9
313.15 K, 5000 kPa	1136.7	–	98.7
313.15 K, 10000 kPa	1139.4	–	104
313.15 K, 15000 kPa	1141.8	–	109
313.15 K, 20000 kPa	1144.2	–	115
314.3 K, 100 kPa	–	0.165	–
314.3 K, 10000 kPa	–	0.168	–
314.3 K, 20000 kPa	–	0.169	–
333.15 K, 100 kPa	1120.5	–	40.4
333.15 K, 5000 kPa	1123.1	–	42.5
333.15 K, 10000 kPa	1125.8	–	44.4
333.15 K, 15000 kPa	1128.5	–	45.5
333.15 K, 20000 kPa	1131.1	–	48.2
334.4 K, 100 kPa	–	0.164	–
334.4 K, 10000 kPa	–	0.167	–
334.4 K, 20000 kPa	–	0.169	–
353.15 K, 100 kPa	1107.1	–	21.2
353.15 K, 5000 kPa	1109.9	–	22.3
353.15 K, 10000 kPa	1112.7	–	22.7
353.15 K, 15000 kPa	1115.5	–	23.9
353.15 K, 20000 kPa	1118.3	–	24.3

CCCCCCCC[n+]1ccn(C)c1.F[B-](F)(F)F [1-methyl-3-octylimidazolium tetrafluoroborate]
Conditions	mass density [kg/m3]	thermal conductivity [W/m/K]	viscosity [mPa·s]
293.15 K, 100 kPa	1107.1	–	472
293.15 K, 5000 kPa	1109.7	–	510
293.15 K, 10000 kPa	1112.2	–	537
293.15 K, 15000 kPa	1114.6	–	572
293.15 K, 20000 kPa	1117	–	649
294.2 K, 100 kPa	–	0.164	–
294.2 K, 10000 kPa	–	0.165	–
294.2 K, 20000 kPa	–	0.167	–
313.15 K, 100 kPa	1093.5	–	146
313.15 K, 5000 kPa	1096.1	–	157
313.15 K, 10000 kPa	1098.8	–	166
313.15 K, 15000 kPa	1101.4	–	175
313.15 K, 20000 kPa	1103.9	–	188
314.3 K, 100 kPa	–	0.163	–
314.3 K, 10000 kPa	–	0.164	–
314.3 K, 20000 kPa	–	0.166	–
333.15 K, 100 kPa	1079.8	–	58
333.15 K, 5000 kPa	1082.6	–	60.6
333.15 K, 10000 kPa	1085.4	–	63.6
333.15 K, 15000 kPa	1088.1	–	66.4
333.15 K, 20000 kPa	1090.8	–	69.8
334.4 K, 100 kPa	–	0.16	–
334.4 K, 10000 kPa	–	0.162	–
334.4 K, 20000 kPa	–	0.164	–
353.15 K, 100 kPa	1066.8	–	28.1
353.15 K, 5000 kPa	1069.7	–	29.8
353.15 K, 10000 kPa	1072.7	–	30.8
353.15 K, 15000 kPa	1075.5	–	32.1
353.15 K, 20000 kPa	1078.3	–	33.4
